What all share (assay): relative viability (nuclei count vs DMSO), 5 days (fraction); higher = more cells survive
Compound in assay [1]: COc1cc2nccc(Oc3ccc(NC(=O)C4(C(=O)Nc5ccc(F)cc5)CC4)cc3)c2cc1OC [Cabozantinib] + Cc1nc(NC(=O)N2CCC[C@H]2C(N)=O)sc1-c1ccnc(C(C)(C)C(F)(F)F)c1 [Alpelisib] (partner 2 µM)
The procedure, abridged:
(§1)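 Relative viability was taken as the ratio of nuclei in treated wells to nuclei in vehicle wells. Lung cancer cell lines in 1536-well plates received compounds by pin tool one day after seeding, either one drug alone or a fixed anchor-drug dose plus five library-drug doses (not always all listed) in √10 steps. Nuclei were counted on 4× images after 5 days of treatment, and values are medians of duplicate plates.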

Compound in assay [2]: COc1cc2nccc(Oc3ccc(NC(=O)C4(C(=O)Nc5ccc(F)cc5)CC4)cc3)c2cc1OC [Cabozantinib] + C[C@@H](Oc1cc(-c2cnn(C3CCNCC3)c2)cnc1N)c1c(Cl)ccc(F)c1Cl [Crizotinib] (partner 1 µM)
The procedure, abridged: as §1

Compound in assay [3]: O[C@@H](COc1cccc2ncccc12)CN1CCN([C@@H]2c3ccccc3[C@@H]3[C@H](c4ccccc42)C3(F)F)CC1 [Zosuquidar] + Cc1nc(NC(=O)N2CCC[C@H]2C(N)=O)sc1-c1ccnc(C(C)(C)C(F)(F)F)c1 [Alpelisib] (partner 2 µM)
The procedure, abridged: as §1

Compound in assay [4]: C1=CC(=CC=C1NC(=S)NNC2=C(C=C(C=C2[N+](=O)[O-])C(F)(F)F)[N+](=O)[O-])F [Kobe2602] + Cc1nc(NC(=O)N2CCC[C@H]2C(N)=O)sc1-c1ccnc(C(C)(C)C(F)(F)F)c1 [Alpelisib] (partner 2 µM)
Put shortly:
as §1

For LCLC-103H, the relative viability in assay [1] (first compound 0.02 µM) is 1.08; in assay [1] (first compound 0.06325 µM) it was 0.859; in assay [1] (first compound 0.2 µM), 0.951; in assay [1] (first compound 0.6325 µM) it was 0.861; in assay [1] (first compound 2 µM), 0.752; in assay [2] (first compound 0.02 µM) it was 1. For the same cell line, the relative viability in assay [2] (first compound 0.06325 µM) is 1.09; in assay [2] (first compound 0.2 µM) it was 1.09; in assay [2] (first compound 0.6325 µM) it was 1.02; in assay [2] (first compound 2 µM), 1.04; in assay [3] (first compound 0.01 µM) it was 1.02; in assay [3] (first compound 0.03162 µM) it was 1.12. Moreover, the relative viability in assay [3] (first compound 0.1 µM) came out at 1.01; in assay [3] (first compound 0.3162 µM), 1.02; in assay [3] (first compound 1 µM), 0.926; in assay [4] (first compound 0.2 µM), 0.897; in assay [4] (first compound 0.6325 µM), 0.944; in assay [4] (first compound 2 µM), 0.961. For the same cell line, the relative viability in assay [4] (first compound 6.325 µM) was determined as 1.02; in assay [4] (first compound 20 µM) it was 0.985.
As for LK-2, the relative viability in assay [1] (first compound 0.06325 µM) came out at 1.22; in assay [1] (first compound 0.2 µM) it was 1.08; in assay [1] (first compound 0.6325 µM) it was 1.23; in assay [1] (first compound 2 µM), 0.856; in assay [2] (first compound 0.06325 µM) it was 0.225; in assay [2] (first compound 0.2 µM), 0.201. In addition, the relative viability in assay [2] (first compound 0.6325 µM) is 0.179; in assay [2] (first compound 2 µM), 0.204; in assay [3] (first compound 0.01 µM), 1.29; in assay [3] (first compound 0.03162 µM), 1.26; in assay [3] (first compound 0.1 µM) it was 0.939; in assay [3] (first compound 0.3162 µM) it was 1.08. Further, the relative viability in assay [3] (first compound 1 µM) worked out at 1.02; in assay [4] (first compound 0.2 µM), 1.04; in assay [4] (first compound 0.6325 µM), 1.2; in assay [4] (first compound 2 µM), 1.26; in assay [4] (first compound 6.325 µM), 1.07; in assay [4] (first compound 20 µM) it was 1.04.
Consider LOU-NH91, for which the relative viability in assay [1] (first compound 0.02 µM) came to 0.721; in assay [1] (first compound 0.06325 µM), 0.793; in assay [1] (first compound 0.2 µM), 0.505; in assay [1] (first compound 0.6325 µM), 0.742; in assay [1] (first compound 2 µM) it was 0.713; in assay [2] (first compound 0.02 µM) it was 0.736. For the same cell line, the relative viability in assay [2] (first compound 0.06325 µM) stood at 0.751; in assay [2] (first compound 0.2 µM), 0.531; in assay [2] (first compound 0.6325 µM), 0.728; in assay [2] (first compound 2 µM), 0.725; in assay [3] (first compound 0.01 µM) it was 0.702; in assay [3] (first compound 0.03162 µM), 0.717. Besides, the relative viability in assay [3] (first compound 0.1 µM) turned out to be 0.6; in assay [3] (first compound 0.3162 µM), 0.718; in assay [3] (first compound 1 µM) it was 0.725; in assay [4] (first compound 0.2 µM), 0.767; in assay [4] (first compound 0.6325 µM), 0.752; in assay [4] (first compound 2 µM), 0.701. Besides, the relative viability in assay [4] (first compound 6.325 µM) stood at 0.722; in assay [4] (first compound 20 µM), 0.778.
As to LU99A, the relative viability came out at 0.469 in assay [1] (first compound 0.02 µM); 0.495 in assay [1] (first compound 0.06325 µM); 0.429 in assay [1] (first compound 0.2 µM); 0.502 in assay [1] (first compound 0.6325 µM); 0.543 in assay [1] (first compound 2 µM); 0.585 in assay [2] (first compound 0.02 µM). Further, the relative viability in assay [2] (first compound 0.06325 µM) is 0.607; in assay [2] (first compound 0.2 µM) it was 0.592; in assay [2] (first compound 0.6325 µM), 0.567; in assay [2] (first compound 2 µM), 0.527; in assay [3] (first compound 0.01 µM), 0.472; in assay [3] (first compound 0.03162 µM) it was 0.507. Besides, the relative viability in assay [3] (first compound 0.1 µM) amounted to 0.475; in assay [3] (first compound 0.3162 µM), 0.617; in assay [3] (first compound 1 µM), 0.529; in assay [4] (first compound 0.2 µM), 0.515; in assay [4] (first compound 0.6325 µM), 0.525; in assay [4] (first compound 2 µM) it was 0.415. Further, the relative viability turned out to be 0.542 in assay [4] (first compound 6.325 µM) and 0.607 in assay [4] (first compound 20 µM).
LXF-289: the relative viability worked out at 1.11 in assay [1] (first compound 0.02 µM); 1.09 in assay [1] (first compound 0.06325 µM); 1.01 in assay [1] (first compound 0.2 µM); 1 in assay [1] (first compound 0.6325 µM); 0.997 in assay [1] (first compound 2 µM); 0.858 in assay [2] (first compound 0.02 µM). In addition, the relative viability in assay [2] (first compound 0.06325 µM) was 0.857; in assay [2] (first compound 0.2 µM), 0.392; in assay [2] (first compound 0.6325 µM), 0.805; in assay [2] (first compound 2 µM) it was 0.818; in assay [3] (first compound 0.01 µM) it was 0.994; in assay [3] (first compound 0.03162 µM), 1.04. Further, the relative viability in assay [3] (first compound 0.1 µM) worked out at 0.97; in assay [3] (first compound 0.3162 µM) it was 1.02; in assay [3] (first compound 1 µM), 1.01; in assay [4] (first compound 0.2 µM), 1.01; in assay [4] (first compound 0.6325 µM), 1.02; in assay [4] (first compound 2 µM), 0.976. Also, the relative viability in assay [4] (first compound 6.325 µM) was 1.06; in assay [4] (first compound 20 µM) it was 0.994.
NCI-H23: the relative viability in assay [1] (first compound 0.06325 µM) turned out to be 0.794; in assay [1] (first compound 0.2 µM) it was 0.716; in assay [1] (first compound 0.6325 µM), 0.646; in assay [1] (first compound 2 µM), 0.545; in assay [2] (first compound 0.06325 µM), 0.634; in assay [2] (first compound 0.2 µM) it was 0.503. Moreover, the relative viability in assay [2] (first compound 0.6325 µM) was found to be 0.473; in assay [2] (first compound 2 µM), 0.413; in assay [3] (first compound 0.01 µM), 0.669; in assay [3] (first compound 0.03162 µM), 0.718; in assay [3] (first compound 0.1 µM), 0.728; in assay [3] (first compound 0.3162 µM), 0.704. Besides, the relative viability amounted to 0.687 in assay [3] (first compound 1 µM); 0.669 in assay [4] (first compound 0.2 µM); 0.863 in assay [4] (first compound 0.6325 µM); 0.68 in assay [4] (first compound 2 µM); 0.829 in assay [4] (first compound 6.325 µM); 0.811 in assay [4] (first compound 20 µM).
Regarding NCI-H1395, the relative viability in assay [1] (first compound 0.02 µM) came out at 1.13; in assay [1] (first compound 0.06325 µM), 1.21; in assay [1] (first compound 0.2 µM) it was 1.06; in assay [1] (first compound 0.6325 µM) it was 1.13; in assay [1] (first compound 2 µM), 1.06; in assay [3] (first compound 0.01 µM), 1. Besides, the relative viability in assay [3] (first compound 0.03162 µM) worked out at 1.01; in assay [3] (first compound 0.1 µM), 0.819; in assay [3] (first compound 0.3162 µM), 1.17; in assay [3] (first compound 1 µM), 1.17; in assay [4] (first compound 0.2 µM), 1.05; in assay [4] (first compound 0.6325 µM), 1.29. In addition, the relative viability in assay [4] (first compound 2 µM) was 1.09; in assay [4] (first compound 6.325 µM) it was 1.14; in assay [4] (first compound 20 µM) it was 1.03.
On to NCI-H1650, for which the relative viability in assay [2] (first compound 0.02 µM) was determined as 1.02; in assay [2] (first compound 0.06325 µM), 1.23; in assay [2] (first compound 0.2 µM), 0.911; in assay [2] (first compound 0.6325 µM), 1.04; in assay [2] (first compound 2 µM), 0.911.
On to NCI-H1793, for which the relative viability in assay [1] (first compound 0.02 µM) worked out at 0.845; in assay [1] (first compound 0.06325 µM), 0.864; in assay [1] (first compound 0.2 µM), 0.561; in assay [1] (first compound 0.6325 µM), 0.759; in assay [1] (first compound 2 µM), 0.637; in assay [3] (first compound 0.01 µM) it was 0.717. Also, the relative viability in assay [3] (first compound 0.03162 µM) came out at 0.665; in assay [3] (first compound 0.3162 µM) it was 0.825; in assay [3] (first compound 1 µM) it was 0.776; in assay [4] (first compound 0.2 µM), 0.629; in assay [4] (first compound 0.6325 µM), 0.615; in assay [4] (first compound 2 µM) it was 0.589. In addition, the relative viability in assay [4] (first compound 6.325 µM) came out at 0.684; in assay [4] (first compound 20 µM), 0.847.

Values taken from the supplement of paper PMC10307832.
